Results published in patent US20060069132A1, “Azolecarboxamide herbicides” (priority 2004, published 2006).

Columns and labels:
giant foxtail [1] = assay: Test C pre-/postemergence herbicide test; type: in vivo, Setaria faberi
Outline: (§1)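 Emerged plants at the 1- to 4-leaf stage (2–18 cm), or freshly planted seeds, received test chemicals in a non-phytotoxic solvent mixture with surfactant. Response was visually scored against controls after 12 to 14 days in the greenhouse, on a 0 (no effect) to 100 (complete control) scale.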

common ragweed = assay: Test C pre-/postemergence herbicide test; type: in vivo, Ambrosia elatior; design: key to Plant response rating, Ragweed: 0 = no effect, 100 = complete control
Outline: as §1

johnsongrass = assay: Test C pre-/postemergence herbicide test; type: in vivo, Sorghum halepense
Outline: as §1

large crabgrass = assay: Test A pre-/postemergence herbicide test; type: in vivo, Digitaria sanguinalis
Outline: (§2)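 Both application timings were run together: directed soil spray over freshly planted seeds in sandy loam, and runoff spray onto 2–10 cm seedlings. Evaluation after ~10 days in greenhouse used a 0–100 visual scale versus untreated controls.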

kochia = assay: Test C pre-/postemergence herbicide test; type: in vivo, Kochia scoparia
Outline: as §1

barnyardgrass = assay: Test A pre-/postemergence herbicide test; type: in vivo, Echinochloa crus-galli
Outline: as §2

corn = assay: Test C pre-/postemergence herbicide test; type: in vivo, Zea mays
Outline: as §1

giant foxtail [2] = assay: Test A pre-/postemergence herbicide test; type: in vivo, Setaria faberi
Outline: as §2

[3] = 62 g ai/ha, preemergence, scale 0 to 100
[4] = 125 g ai/ha, scale 0 (no effect) to 100 (complete control), visual, 12 to 14 days, preemergence
[5] = 250 g ai/ha, scale 0-100, preemergence
[6] = Preemergence, 500 g ai/ha, scale 0 to 100, 0 no effect, 100 complete control
[7] = Postemergence, 500 g ai/ha, 0 to 100 scale, 0 no effect, 100 complete control
[8] = Postemergence, 2000 g ai/ha, 0 to 100 scale, 0 no effect, 100 complete control
[9] = Preemergence, 2000 g ai/ha, visual rating, 0 to 100 scale (0 no effect, 100 complete control)
[10] = preemergence, 500 g ai/ha, visual injury, 0 to 100 scale (0 no effect, 100 complete control)
[11] = 500 g ai/ha, scale 0 to 100 (0 no effect, 100 complete control), visual, 12 to 14 days, preemergence
[12] = Postemergence, 500 g ai/ha, scale 0 to 100
[13] = Postemergence, 250 g ai/ha, scale 0 to 100, 0 no effect, 100 complete control
[14] = postemergence, 125 g ai/ha, scale 0 to 100
[15] = postemergence, 62 g ai/ha, scale 0 to 100

## CCc1nc(C(C)(C)C)sc1C(=O)Nc1cccc(C(=O)N(CC)CC)c1 [Compound 205]
Giant foxtail [1]; [3]
  Plant response rating, Foxtail, Giant: 0
Giant foxtail [1]; [4]
  Plant response rating, Foxtail, Giant: 10
Giant foxtail [1]; [5]
  Plant response rating, Foxtail, Giant: 80
Giant foxtail [1]; [6]
  Foxtail, Giant plant response rating: 95
Common ragweed; [3]
  Plant response rating, Ragweed: 0
Common ragweed; [4]
  Plant response rating, Ragweed: 20
Common ragweed; [5]
  Plant response rating, Ragweed: 50
Common ragweed; [6]
  Ragweed plant response rating: 100
johnsongrass; [3]
  Plant response rating, Johnsongrass: 0
johnsongrass; [4]
  Plant response rating, Johnsongrass: 10
johnsongrass; [5]
  Plant response rating, Johnsongrass: 60
johnsongrass; [6]
  Johnsongrass plant response rating: 85
Large crabgrass; [7]
  Crabgrass, Large plant response rating: 10
Large crabgrass; [8]
  Plant response rating, Crabgrass, Large: 20
Large crabgrass; [9]
  Crabgrass, Large plant response rating: 95
Large crabgrass; [10]
  Crabgrass, Large plant response rating: 80
kochia; [3]
  Plant response rating, Kochia: 90
kochia; [4]
  Plant response rating, Kochia: 90
kochia; [5]
  Plant response rating, Kochia: 90
kochia; [6]
  Kochia plant response rating: 90
barnyardgrass; [7]
  Barnyardgrass plant response rating: 45
barnyardgrass; [8]
  Plant response rating, Barnyardgrass: 65
barnyardgrass; [9]
  Barnyardgrass plant response rating: 90
barnyardgrass; [10]
  Barnyardgrass plant response rating: 80
corn; [3]
  Plant response rating, Corn: 0
corn; [4]
  Plant response rating, Corn: 0
corn; [5]
  Plant response rating, Corn: 0
corn; [6]
  Corn plant response rating: 40
Giant foxtail [2]; [7]
  Foxtail, Giant plant response rating: 10
Giant foxtail [2]; [8]
  Plant response rating, Foxtail, Giant: 25
Giant foxtail [2]; [9]
  Foxtail, Giant plant response rating: 100
Giant foxtail [2]; [10]
  Foxtail, Giant plant response rating: 85

## CCc1nc(C(C)(C)C)sc1C(=O)Nc1cccc(C(=O)NCC2CC2)c1 [Compound 212]
Giant foxtail [1]; [3]
  Plant response rating, Foxtail, Giant: 0
Giant foxtail [1]; [4]
  Plant response rating, Foxtail, Giant: 20
Giant foxtail [1]; [5]
  Plant response rating, Foxtail, Giant: 20
Giant foxtail [1]; [11]
  Plant response rating, Foxtail, Giant: 95
Giant foxtail [1]; [12]
  Foxtail, Giant plant response rating: 60
Giant foxtail [1]; [13]
  Plant response rating, Foxtail, Giant: 50
Giant foxtail [1]; [14]
  Plant response rating, Foxtail, Giant: 20
Giant foxtail [1]; [15]
  Plant response rating, Foxtail, Giant: 10
Common ragweed; [3]
  Plant response rating, Ragweed: 0
Common ragweed; [4]
  Plant response rating, Ragweed: 0
Common ragweed; [5]
  Plant response rating, Ragweed: 30
Common ragweed; [11]
  Plant response rating, Ragweed: 95
Common ragweed; [13]
  Plant response rating, Ragweed: 80
Common ragweed; [14]
  Plant response rating, Ragweed: 60
Common ragweed; [15]
  Plant response rating, Ragweed: 60
johnsongrass; [3]
  Plant response rating, Johnsongrass: 0
johnsongrass; [4]
  Plant response rating, Johnsongrass: 0
johnsongrass; [5]
  Plant response rating, Johnsongrass: 50
johnsongrass; [11]
  Plant response rating, Johnsongrass: 60
johnsongrass; [12]
  Johnsongrass plant response rating: 35
johnsongrass; [13]
  Plant response rating, Johnsongrass: 35
johnsongrass; [14]
  Plant response rating, Johnsongrass: 30
johnsongrass; [15]
  Plant response rating, Johnsongrass: 0
Large crabgrass; [7]
  Crabgrass, Large plant response rating: 45
Large crabgrass; [8]
  Plant response rating, Crabgrass, Large: 60
Large crabgrass; [9]
  Crabgrass, Large plant response rating: 95
Large crabgrass; [10]
  Crabgrass, Large plant response rating: 90
kochia; [3]
  Plant response rating, Kochia: 85
kochia; [4]
  Plant response rating, Kochia: 85
kochia; [5]
  Plant response rating, Kochia: 90
kochia; [11]
  Plant response rating, Kochia: 95
kochia; [12]
  Kochia plant response rating: 90
kochia; [13]
  Plant response rating, Kochia: 90
kochia; [14]
  Plant response rating, Kochia: 80
kochia; [15]
  Plant response rating, Kochia: 80
barnyardgrass; [7]
  Barnyardgrass plant response rating: 50
barnyardgrass; [8]
  Plant response rating, Barnyardgrass: 90
barnyardgrass; [9]
  Barnyardgrass plant response rating: 85
barnyardgrass; [10]
  Barnyardgrass plant response rating: 80
corn; [3]
  Plant response rating, Corn: 0
corn; [4]
  Plant response rating, Corn: 0
corn; [5]
  Plant response rating, Corn: 30
corn; [11]
  Plant response rating, Corn: 40
corn; [12]
  Corn plant response rating: 40
corn; [13]
  Plant response rating, Corn: 40
corn; [14]
  Plant response rating, Corn: 35
corn; [15]
  Plant response rating, Corn: 15
Giant foxtail [2]; [7]
  Foxtail, Giant plant response rating: 45
Giant foxtail [2]; [8]
  Plant response rating, Foxtail, Giant: 80
Giant foxtail [2]; [9]
  Foxtail, Giant plant response rating: 95
Giant foxtail [2]; [10]
  Foxtail, Giant plant response rating: 70

## CCN(CC)C(=O)c1cccc(NC(=O)c2cc(C(C)(C)C)nn2C)n1 [Compound 314]
Giant foxtail [1]; [3]
  Plant response rating, Foxtail, Giant: 0
Giant foxtail [1]; [4]
  Plant response rating, Foxtail, Giant: 0
Giant foxtail [1]; [5]
  Plant response rating, Foxtail, Giant: 20
Giant foxtail [1]; [11]
  Plant response rating, Foxtail, Giant: 70
Common ragweed; [3]
  Plant response rating, Ragweed: 0
Common ragweed; [5]
  Plant response rating, Ragweed: 40
Common ragweed; [11]
  Plant response rating, Ragweed: 60
johnsongrass; [3]
  Plant response rating, Johnsongrass: 0
johnsongrass; [4]
  Plant response rating, Johnsongrass: 20
johnsongrass; [5]
  Plant response rating, Johnsongrass: 70
johnsongrass; [11]
  Plant response rating, Johnsongrass: 90
Large crabgrass; [7]
  Crabgrass, Large plant response rating: 20
Large crabgrass; [8]
  Plant response rating, Crabgrass, Large: 60
Large crabgrass; [9]
  Crabgrass, Large plant response rating: 90
Large crabgrass; [10]
  Crabgrass, Large plant response rating: 55
kochia; [3]
  Plant response rating, Kochia: 0
kochia; [4]
  Plant response rating, Kochia: 0
kochia; [5]
  Plant response rating, Kochia: 30
kochia; [11]
  Plant response rating, Kochia: 70
barnyardgrass; [7]
  Barnyardgrass plant response rating: 35
barnyardgrass; [8]
  Plant response rating, Barnyardgrass: 75
barnyardgrass; [9]
  Barnyardgrass plant response rating: 90
barnyardgrass; [10]
  Barnyardgrass plant response rating: 50
corn; [3]
  Plant response rating, Corn: 0
corn; [4]
  Plant response rating, Corn: 0
corn; [5]
  Plant response rating, Corn: 0
corn; [11]
  Plant response rating, Corn: 0
Giant foxtail [2]; [7]
  Foxtail, Giant plant response rating: 30
Giant foxtail [2]; [8]
  Plant response rating, Foxtail, Giant: 70
Giant foxtail [2]; [9]
  Foxtail, Giant plant response rating: 90
Giant foxtail [2]; [10]
  Foxtail, Giant plant response rating: 60

## C=CCNC(=O)c1cccc(NC(=O)c2cc(C(C)(C)C)nn2C)n1 [Compound 318]
Giant foxtail [1]; [3]
  Plant response rating, Foxtail, Giant: 0
Giant foxtail [1]; [4]
  Plant response rating, Foxtail, Giant: 10
Giant foxtail [1]; [5]
  Plant response rating, Foxtail, Giant: 50
Giant foxtail [1]; [11]
  Plant response rating, Foxtail, Giant: 80
Giant foxtail [1]; [12]
  Foxtail, Giant plant response rating: 10
Giant foxtail [1]; [13]
  Plant response rating, Foxtail, Giant: 5
Giant foxtail [1]; [14]
  Plant response rating, Foxtail, Giant: 0
Giant foxtail [1]; [15]
  Plant response rating, Foxtail, Giant: 0
Common ragweed; [3]
  Plant response rating, Ragweed: 0
Common ragweed; [5]
  Plant response rating, Ragweed: 70
Common ragweed; [11]
  Plant response rating, Ragweed: 70
Common ragweed; [12]
  Ragweed plant response rating: 0
Common ragweed; [13]
  Plant response rating, Ragweed: 0
Common ragweed; [14]
  Plant response rating, Ragweed: 0
Common ragweed; [15]
  Plant response rating, Ragweed: 0
johnsongrass; [3]
  Plant response rating, Johnsongrass: 0
johnsongrass; [4]
  Plant response rating, Johnsongrass: 0
johnsongrass; [5]
  Plant response rating, Johnsongrass: 60
johnsongrass; [11]
  Plant response rating, Johnsongrass: 95
johnsongrass; [12]
  Johnsongrass plant response rating: 0
johnsongrass; [13]
  Plant response rating, Johnsongrass: 0
johnsongrass; [14]
  Plant response rating, Johnsongrass: 0
johnsongrass; [15]
  Plant response rating, Johnsongrass: 0
Large crabgrass; [7]
  Crabgrass, Large plant response rating: 30
Large crabgrass; [8]
  Plant response rating, Crabgrass, Large: 70
Large crabgrass; [9]
  Crabgrass, Large plant response rating: 70
Large crabgrass; [10]
  Crabgrass, Large plant response rating: 55
kochia; [3]
  Plant response rating, Kochia: 10
kochia; [4]
  Plant response rating, Kochia: 60
kochia; [5]
  Plant response rating, Kochia: 85
kochia; [11]
  Plant response rating, Kochia: 100
kochia; [12]
  Kochia plant response rating: 60
kochia; [13]
  Plant response rating, Kochia: 60
kochia; [14]
  Plant response rating, Kochia: 10
kochia; [15]
  Plant response rating, Kochia: 0
barnyardgrass; [7]
  Barnyardgrass plant response rating: 65
barnyardgrass; [8]
  Plant response rating, Barnyardgrass: 90
barnyardgrass; [9]
  Barnyardgrass plant response rating: 95
barnyardgrass; [10]
  Barnyardgrass plant response rating: 65
corn; [3]
  Plant response rating, Corn: 0
corn; [4]
  Plant response rating, Corn: 0
corn; [5]
  Plant response rating, Corn: 10
corn; [11]
  Plant response rating, Corn: 40
corn; [12]
  Corn plant response rating: 25
corn; [13]
  Plant response rating, Corn: 10
corn; [14]
  Plant response rating, Corn: 10
corn; [15]
  Plant response rating, Corn: 0
Giant foxtail [2]; [7]
  Foxtail, Giant plant response rating: 50
Giant foxtail [2]; [8]
  Plant response rating, Foxtail, Giant: 90
Giant foxtail [2]; [9]
  Foxtail, Giant plant response rating: 85
Giant foxtail [2]; [10]
  Foxtail, Giant plant response rating: 40
